# Experimental data published in patent US6093720A, “Trans apovincaminic acid ester derivatives” (Richter Gedeon Vegyeszeti GmbH, priority 1995, dated 2000).
# Several values for one entry are separate records, joined by “and”; a condition that tells them apart may be missing. Identical values can stand only once. Counter-ions that a name gives are not always drawn.
# Key:
# [1] = test system: Fe^2+ -Induced Lipid Peroxidation in Brain Homogenate; experiment: Fe^2+-induced (non-enzymatic) lipid peroxidation in brain homogenate (ANI); assay type: biochemical, rat (Hannover-Wistar); details: for IC50: Fe^2+-induced lipid peroxidation, rat brain homogenate, 37° C., 20 minutes, pH 7.4; for antioxidant activity in Fe^2+-induced lipid peroxidation, in words: comparison with idebenone, DL-α-tocopherol or silymarin
# Procedure: Effect on the Fe^2+ -Induced Lipid Peroxidation in Brain Homogenate
# After decapitating Hannover-Wistar rats weighing 150-220 g each, the whole brain was homogenized in 9 volumes of ice-cold Krebs-Ringer's buffer containing 15 mM HEPES, (4-(2-hydroxyethyl)-1-piperazinylethanesulfonic acid) (pH 7.4), 140 mM NaCl7 3.6 mM KCl, 1.5 mM CaCl2, 0.7 mM MgCl2, 1.4 mM KH2 PO4 and 10 glucose. Then the protein content of the solution was determined and adjusted to 10 mg/ml concentration.
# After adding the inhibitory agent to be tested in a volume of 5 μl to 200 μl of the homogenate, the incubation mixture was incubated at 37° C. for 20 minutes. The Fe^2+ -induced lipid peroxidation was accomplished by adding 5 μl of 8 mM Fe2 (NH4)2 (SO4)2 solution. After passing of the incubation time, the reaction was stopped by adding 1 ml of a stopping solution containing 0.8 M HCl and 12.5% trichloroacetic acid, then the samples were centrifuged at 2000 g in a Janetzki K70 apparatus at 4° C. for 10 minutes.
# To a 0.5 ml portion of the supernatant, 1 ml of 1% thiobarbituric acid solution was added, then the samples were placed in a water bath of 100° C. for 20 minutes. The color intensity developed was determined at 535 nm with a Hitachi 150-20 spectrophotometer by using malondialdehyde bis(diethylacetal) as reference compound.
# ANI: non-enzymatically (Fe^2+) induced lipid peroxidation test
# [2] = test system: NADPH-Induced Lipid Peroxidation in Brain Microsomes; experiment: NADPH-induced (enzymatic) lipid peroxidation in brain microsomes (AEI); assay type: biochemical, rat (male Hannover-Wistar); details: for IC50: NADPH-induced lipid peroxidation, rat brain microsomes, 37° C., 20 minutes, pH 6.8; for inhibition of NADPH-induced lipid peroxidation relative to silymarin (times as strongly): compared with silymarin; for antioxidant effect in NADPH-induced lipid peroxidation, in words: comparison with reference compounds
# Procedure: Effect on the NADPH-Induced Lipid Peroxidation in Brain Microsomes
# Male Hannover-Wistar rats with a body weight of 150-250 g were used for the preparation of microsomes. After decapitation, the whole brain was removed and homogenized in a 10-fold volume of ice-cold 0.25 M saccharose solution. The homogenate was centrifuged in a Hitachi CR 26H equipment at 15000 g at 4° C. for 10 minutes, then the supernatant was collected and centrifuged in a Hitachi SCP 85H apparatus at 78000 g at 4° C. for 60 minutes. After suspending the precipitate in 0.15 M KCl solution, the protein content of the obtained solution was determined and then adjusted to 10 mg/ml concentration. The microsome thus obtained was frozen in a dry ice-acetone mixture and stored at -70° C. until use. The components of the incubation mixture were: 50 mM TRIS-HCl (pH 6.8), 0.2 mM FeCl3, 1 mM KH2 PO4, 0.5 mM ADP, 0.2 mg of microsomes as well as the compound to be tested. The incubation was carried out with a final volume of 1 ml and with an incubation time of 20 minutes at a temperature of 37° C. The lipid peroxidation was induced by adding 0.4 mM NADPH.
# The formation of malondialdehyde was determined by using thiobarbituric acid. After stopping the reaction, 1 ml of 1% thiobarbituric acid solution each was weighed to the samples, which were then placed in a water bath of about 100° C. for 10 minutes. Subsequently, the samples were centrifuged at 2000 g in a Janetzki K70 apparatus at 4° C. for 10 minutes. The absorbance values of the colored supernatant were measured at 535 nm in a Hitachi 150-20 spectrophotometer. Malondialdehyde bis(diethylacetal) was used as reference compound.
# [3] = Antiischemic effect on bilateral (carotid) artery ligation model, mortality; assay type: in vivo, mice; details: for mortality at 2 mg/kg / ED50: Mus musculus, ip; for mortality at 2 mg/kg: 24 h, 30 minutes before 5-minute bilateral carotid ligation, control mortality 70%; for mortality at 2 mg/kg / antiischemic activity, in words: 2 mg/kg i.p.; for ED50: dose diminishing the mortality by 50% in comparison to the untreated control group; for antiischemic activity, in words: bilateral artery ligation, mice
# Procedure: 1. Antiischemic Effect (On Bilateral Artery Ligation Model)
# N. Himori et al.: Cerebral ischemia model with conscious mice involvement of NMDA receptor activation and derangement of learning and memory ability [J. Pharmacol. Meth. 23, 311-327 (1990)].
# Carotid arteries of mice (weighing 30 to 32 g each) were exposed bilaterally under anaesthesia by 450 mg/kg of intraperitoneal (i.p.) chloral hydrate. The sympathetic and vagal nerves were separated and a loose ligation was bilaterally placed below the carotid arteries. Both ends of the ligation were led out on the back, behind the ears. Next day, in conscious state both ends of the ligation were pulled resulting in the stopping of blood supply through the carotid arteries. This was maintained for 5 minutes, then released to provide the reperfusion. The number of animals died during the 5-minute period and the following 24 hours were registered. The calculation of significance was performed by the chi^2 test. The pre-treatment with the compound was carried out intraperitoneally (i.p.) 30 minutes before the ligation.
# The transient dramatic decrease in the cerebral blood supply, then the starting of reperfusion after stopping the ligation leads to the formation of extremely toxic oxygen free radicals (superoxide radical, hydrogen peroxide). […] [ED50 is the dose (as mg/kg) diminishing the mortality by 50% in comparison to the untreated is control group].
# [4] = Diazepam-induced anterograde amnesia (passive avoidance); assay type: in vivo, NMRI mice; details: for Inhibition of the diazepam-induced amnesia %: 1 hour before learning, diazepam 3 mg/kg i.p.; for antiamnesic activity, in words: diazepam-induced anterograde amnesia, 0.1 and 10 mg/kg p.o.
# Description: 2. Diazepam-Induced Anterograde Amnesia C. L. Broekkamp et al.: The comparative effects of benzodiazepines, progabide and PK 9084 on acquisition of passive avoidance in mice [Psychopharmacology (Berlin) 83, 122-125 (1984)]. The memory test was accomplished on NMRI mice weighing 25 to 28 g each by using the passive avoidance, a method based on the genetically determined nyctophilic behavior of rodents. During the learning period, the pre-selected animals (mice entering the dark space from the illuminated space within 30 seconds) were placed in an illuminated space. After entering the dark space, the animal received an electric shock (1 mA for […]) onto its planta within 30 seconds, then the time until entry to the dark space (latency period) was registered. After 24 hours, the animals were placed again in the illuminated space and the time until crossing over to the dark space (retention time=T with a time limit of 300 seconds) was measured. For inducing an anterograde amnesia, the animals were treated intraperitoneally with 3 mg/kg of diazepam 30 minutes before learning. The compounds were administered orally in 0.1 or 10 mg/kg doses, respectively 1 hour before learning. [formula]
Compound,IC50 [1],IC50 [2],mortality at 2 mg/kg [3] [%],ED50 [3] [mg/kg],"antiischemic activity, in words [3]","antioxidant activity in Fe^2+-induced lipid peroxidation, in words [1]",Inhibition of the diazepam-induced amnesia % ([4]; 0.1 mg/kg p.o.) [%],Inhibition of the diazepam-induced amnesia % ([4]; 10.0 mg/kg p.o.) [%],inhibition of NADPH-induced lipid peroxidation relative to silymarin (times as strongly) [2],"antiamnesic activity, in words [4]","antioxidant effect in NADPH-induced lipid peroxidation, in words [2]"
"Cc1c(C)c2c(c(C)c1O)CCC(C)(CCCC(C)CCCC(C)CCCC(C)C)O2 (racemic) [Vitamin E, 2,5,7,8-tetramethyl-2-(4',8',12'-trimethyltridecyl)-6-chromanol, reference compound]",12.1 µM,406 µM,70,17.8,less active in the same dose,,,,,,
"CC[C@@]12C=C(C(=O)OCCO)n3c4c(c5ccccc53)CCN(CCC1)[C@@H]42 [Compound 1010885, (-)-trans apovincaminic acid 2-hydroxyethyl ester(3β,16α)]",15.5 µM,9.7 µM,60,,,more strongly than idebenone,74,65,about 20 times,,
"CC[C@]12C=C(C(=O)OCCOC(C)=O)n3c4c(c5ccccc53)CCN(CCC1)[C@H]42 [Compound 1010886, (+)-trans apovincaminic acid 2-(acetoxy)ethyl ester(3α,16β)hydrochloride]",7.7 µM and < 10 µM,7.6 µM and < 10 µM,,,,about twice as active as idebenone or DL-α-tocopherol,72,44,about 20 times,particularly effective,
"CC[C@]12C=C(C(=O)OCCO)n3c4c(c5ccccc53)CCN(CCC1)[C@H]42 [Compound 1010887, (+)-trans apovincaminic acid 2-hydroxyethyl ester(3α,16β)]",7.2 µM,12.6 µM,,,,about twice as active as idebenone or DL-α-tocopherol,50,56,about 20 times,particularly effective,
"CC[C@@]12C=C(C(=O)OCCOC(=O)c3ccccc3)n3c4c(c5ccccc53)CCN(CCC1)[C@@H]42 [Compound 1010960, (-)-trans apovincaminic acid 2-(benzoyloxy)ethyl ester(3β,16α)hydrochloride]",5.7 µM and < 10 µM,7.4 µM and < 10 µM,10 to 30,,,about twice as active as idebenone or DL-α-tocopherol,0,0,about 20 times,,
"CC[C@@]12C=C(C(=O)OCCOC(=O)c3ccc(Cl)cc3)n3c4c(c5ccccc53)CCN(CCC1)[C@@H]42 [Compound 1010961, (-)-trans apovincaminic acid 2-(4-chlorobenzoyloxy)ethyl ester(3β,16α)methanesulfonate]",5.3 µM and < 10 µM,5.9 µM and < 10 µM,60,,,about twice as active as idebenone or DL-α-tocopherol,3,15,,,comparable to that of idebenone
"CCC(=O)OCCOC(=O)C1=C[C@]2(CC)CCCN3CCc4c(n1c1ccccc41)[C@H]32 [Compound 1010962, (-)-trans apovincaminic acid 2-(propionyloxyethyl)ester(3β,16α)hydrochloride]",5.7 µM and < 10 µM,7.5 µM and < 10 µM,40,,,about twice as active as idebenone or DL-α-tocopherol,16,4,about 20 times,,
"CC[C@@]12C=C(C(=O)OCCOC(=O)c3cc(OC)c(OC)c(OC)c3)n3c4c(c5ccccc53)CCN(CCC1)[C@@H]42 [Compound 1011005, (-)-trans apovincaminic acid 2-(3,4,5-trimethoxybenzoyloxy)-ethyl ester(3β,16α)hydrochloride]",11.9 µM,10.3 µM,70,,,,,,about 20 times,,
"CC[C@]12C=C(C(=O)OCCOC(=O)c3ccccc3)n3c4c(c5ccccc53)CCN(CCC1)[C@H]42 [Compound 1011036, (-)-trans apovincaminic acid 2-(benzoyloxy)ethyl ester(3α,16β)hydrochloride]",9.3 µM and < 10 µM,7.7 µM and < 10 µM,50,,,about twice as active as idebenone or DL-α-tocopherol,23,16,about 20 times,,
"CC[C@]12C=C(C(=O)OCCOC(=O)c3ccc(Cl)cc3)n3c4c(c5ccccc53)CCN(CCC1)[C@H]42 [Compound 1011037, (+)-trans apovincaminic acid 2-(4-chloro-benzoyloxy)-ethyl ester(3α,16β)methanesulfonate]",11.4 µM,3.2 µM,50,,,,,,,,comparable to that of idebenone
"CC[C@]12C=C(C(=O)OCCOC(=O)c3cc(OC)c(OC)c(OC)c3)n3c4c(c5ccccc53)CCN(CCC1)[C@H]42 [Compound 1011047, (+)-trans apovincaminic acid 2-(3,4,5-trimethoxybenzoyloxy)ethyl ester(3α,16β)]",16.1 µM,5.9 µM,50,,,more strongly than idebenone,,,,,comparable to that of idebenone
"CC[C@@]12C=C(C(=O)OCCOC(=O)c3cccs3)n3c4c(c5ccccc53)CCN(CCC1)[C@@H]42 [Compound 2705283, (-)-trans apovincaminic acid 2-(2-thiophenoyloxi)ethyl ester(3β,16α)monohydrochloride]",6.8 µM,11.2 µM,,,,about twice as active as idebenone or DL-α-tocopherol,,,about 20 times,,
"CC[C@@]12C=C(C(=O)OCCOC(=O)c3ccc([N+](=O)[O-])cc3)n3c4c(c5ccccc53)CCN(CCC1)[C@@H]42 [Compound 2705284, (-)-trans apovincaminic acid 2-(4-nitrobenzoyloxy)ethyl ester(3β,16α)]",6.8 µM,20.4 µM,,,,about twice as active as idebenone or DL-α-tocopherol,,,,,
"COC1=C(OC)C(=O)C(CCCCCCCCCCO)=C(C)C1=O [Idebenone, 6-(10-hydroxydecyl)-2,3-dimethoxy-5-methyl-1,4-benzoquinone, reference compound]",18.9 µM,1.2 µM,40,4.5,less active in the same dose,,,,,,
"CCOC(=O)C1=C[C@]2(CC)CCCN3CCc4c(n1c1ccccc41)[C@@H]32 [Vinpocetine, reference compound]",,,,,,,0,123,,,
"(-)-Bis-trans apovincaminic acid ethyleneglycol ester(3β,16β)dihydrochloride [Compound 1011008]",21.2 µM,6 µM,,,,exceeded that of silymarin,,,,,comparable to that of idebenone
